From US20200000751A1, “CARBOXYLIC ACIDS FOR TREATING/PREVENTING NASAL CONGESTION” (PROPONENT BIOTECH GMBH, priority 2016, published 2020)

Test: Stability of test item in solution
Format: physicochemical
Settings: in Locke-Ringer Solution

For CCC(=O)[O-].[Na+] [Sodium propionate], the “Stability of Test Item in Solution” value was ≥6 months in Locke-Ringer Solution.
